# Values quoted from earlier work, collected in patent US12661328B2, “Methods of treating anti-NMDAR-associated neuropsychiatric disorders” (Vanderbilt University, priority 2018, dated 2026).
# Experiments:
# [1] = system: γ-aminobutyric acid (GABA), benzodiazepine, dopamine, adrenergic, histamine, or glycine receptors
# [2] = system: extrasynaptic NMDA receptors; settings: Xia et al., 2010
# [3] = system: voltage-dependent calcium, sodium, or potassium channels
structure (smiles),measurement,setting,value
"CC12CC3CC(C)(C1)CC(N)(C3)C2 [Memantine, 1-amino-3,5-dimethyladamantane]",affinity for NMDA receptors,NMDA receptors,low to moderate-affinity
same,"affinity for GABA, benzodiazepine, dopamine, adrenergic, histamine, or glycine receptors",[1],no affinity
same,concentration range of relatively specific inhibition of extrasynaptic NMDA receptors,[2],low micromolar range
same,"affinity for voltage-dependent calcium, sodium, or potassium channels",[3],no affinity
